Laboratory results from ChEMBL document CHEMBL1255382, “Genetic mapping of targets mediating differential chemical phenotypes in Plasmodium falciparum” (Nat Chem Biol, 2009).
Structures can show the parent of a compound that is named as a salt.

Legend:
Plasmodium falciparum [1] = assay: microbe, parasite or virus in culture; assay type: functional, organism-based, W2; settings: for IC50: Plasmodium falciparum, W2, 72 h
Description: Antiplasmodial activity against Plasmodium falciparum W2 after 72 hrs by SYBR green assay

Plasmodium falciparum [2] = assay: microbe, parasite or virus in culture; settings: HB3, 72 h
Description: Antiplasmodial activity against Plasmodium falciparum HB3 after 72 hrs by SYBR green assay

Plasmodium falciparum [3] = assay: microbe, parasite or virus in culture; settings: D10, 72 h
Description: Antiplasmodial activity against Plasmodium falciparum D10 after 72 hrs by SYBR green assay

Plasmodium falciparum [4] = assay: microbe, parasite or virus in culture; assay type: functional, organism-based; settings: GB4, 72 h
Description: Antiplasmodial activity against Plasmodium falciparum GB4 after 72 hrs by SYBR green assay

Plasmodium falciparum [5] = assay: microbe, parasite or virus in culture; settings: Dd2, 72 h
Description: Antiplasmodial activity against Plasmodium falciparum Dd2 after 72 hrs by SYBR green assay

Plasmodium falciparum [6] = assay: microbe, parasite or virus in culture; assay type: functional, organism-based; settings: 3D7, 72 h
Description: Antiplasmodial activity against Plasmodium falciparum 3D7 after 72 hrs by SYBR green assay

Plasmodium falciparum [7] = assay: microbe, parasite or virus in culture; assay type: functional, organism-based; settings: 7G8, 72 h
Description: Antiplasmodial activity against Plasmodium falciparum 7G8 after 72 hrs by SYBR green assay

Plasmodium falciparum [8] = assay: microbe, parasite or virus in culture; settings: XF12, 72 h
Description: (§1) Antiplasmodial activity against Plasmodium falciparum XF12 after 72 hrs by SYBR green assay

Plasmodium falciparum [9] = test system: Plasmodium falciparum
Description: as §1

Plasmodium falciparum [10] = assay: microbe, parasite or virus in culture; settings: AL2, 72 h
Description: Antiplasmodial activity against Plasmodium falciparum AL2 after 72 hrs by SYBR green assay

Plasmodium falciparum [11] = assay: microbe, parasite or virus in culture; settings: XE7, 72 h
Description: Antiplasmodial activity against Plasmodium falciparum XE7 after 72 hrs by SYBR green assay

Plasmodium falciparum [12] = assay: microbe, parasite or virus in culture; settings: W2, 72 h
Description: Antiplasmodial activity against Plasmodium falciparum W2 harboring polymorphic DHFR after 72 hrs by SYBR green assay

Plasmodium falciparum [13] = assay: microbe, parasite or virus in culture; settings: HB3, 72 h; remark: listed apart in the source
Description: Antiplasmodial activity against Plasmodium falciparum HB3 harboring polymorphic DHFR after 72 hrs by SYBR green assay

Plasmodium falciparum [14] = assay: microbe, parasite or virus in culture; settings: JB12, 72 h
Description: Antiplasmodial activity against Plasmodium falciparum JB12 after 72 hrs by SYBR green assay

Plasmodium falciparum [15] = assay: microbe, parasite or virus in culture; settings: XD8, 72 h
Description: Antiplasmodial activity against Plasmodium falciparum XD8 after 72 hrs by SYBR green assay

Plasmodium falciparum [16] = assay: microbe, parasite or virus in culture; settings: JH6, 72 h
Description: Antiplasmodial activity against Plasmodium falciparum JH6 after 72 hrs by SYBR green assay

Plasmodium falciparum [17] = assay: microbe, parasite or virus in culture; settings: KA6, 72 h
Description: Antiplasmodial activity against Plasmodium falciparum KA6 after 72 hrs by SYBR green assay

Plasmodium falciparum [18] = assay: microbe, parasite or virus in culture; settings: JC3, 72 h
Description: Antiplasmodial activity against Plasmodium falciparum JC3 after 72 hrs by SYBR green assay

Plasmodium falciparum [19] = assay: microbe, parasite or virus in culture; settings: WC4, 72 h
Description: Antiplasmodial activity against Plasmodium falciparum WC4 after 72 hrs by SYBR green assay

Plasmodium falciparum [20] = assay: microbe, parasite or virus in culture; settings: JON, 72 h
Description: Antiplasmodial activity against Plasmodium falciparum JON after 72 hrs by SYBR green assay

Plasmodium falciparum [21] = assay: microbe, parasite or virus in culture; settings: XB3, 72 h
Description: Antiplasmodial activity against Plasmodium falciparum XB3 after 72 hrs by SYBR green assay

Plasmodium falciparum [22] = assay: microbe, parasite or virus in culture; settings: DAN, 72 h
Description: Antiplasmodial activity against Plasmodium falciparum DAN after 72 hrs by SYBR green assay

Plasmodium falciparum [23] = assay: microbe, parasite or virus in culture; settings: LC12, 72 h
Description: Antiplasmodial activity against Plasmodium falciparum LC12 after 72 hrs by SYBR green assay

Plasmodium falciparum [24] = assay: microbe, parasite or virus in culture; settings: 7G8, 72 h
Description: Antiplasmodial activity against Plasmodium falciparum 7G8 harboring polymorphic DHFR after 72 hrs by SYBR green assay

Plasmodium falciparum [25] = assay: microbe, parasite or virus in culture; settings: NF10, 72 h
Description: Antiplasmodial activity against Plasmodium falciparum NF10 after 72 hrs by SYBR green assay

Plasmodium falciparum [26] = assay: microbe, parasite or virus in culture; settings: KB8, 72 h
Description: Antiplasmodial activity against Plasmodium falciparum KB8 after 72 hrs by SYBR green assay

Plasmodium falciparum [27] = assay: microbe, parasite or virus in culture; settings: Dd2, 72 h; remark: listed apart in the source
Description: Antiplasmodial activity against transgenic Plasmodium falciparum Dd2 pDT harboring polymorphic DHFR after 72 hrs by SYBR green assay

Plasmodium falciparum [28] = assay: microbe, parasite or virus in culture; settings: QF5, 72 h
Description: Antiplasmodial activity against Plasmodium falciparum QF5 after 72 hrs by SYBR green assay

Plasmodium falciparum [29] = assay: microbe, parasite or virus in culture; settings: JC9, 72 h
Description: Antiplasmodial activity against Plasmodium falciparum JC9 after 72 hrs by SYBR green assay

Plasmodium falciparum [30] = assay: microbe, parasite or virus in culture; settings: NIC, 72 h
Description: Antiplasmodial activity against Plasmodium falciparum NIC after 72 hrs by SYBR green assay

Plasmodium falciparum [31] = assay: microbe, parasite or virus in culture; settings: WE2, 72 h
Description: Antiplasmodial activity against Plasmodium falciparum WE2 after 72 hrs by SYBR green assay

Plasmodium falciparum [32] = assay: microbe, parasite or virus in culture; settings: JF11, 72 h
Description: Antiplasmodial activity against Plasmodium falciparum JF11 after 72 hrs by SYBR green assay

Plasmodium falciparum [33] = assay: microbe, parasite or virus in culture; settings: D10, 72 h; remark: listed apart in the source
Description: Antiplasmodial activity against Plasmodium falciparum D10 harboring polymorphic DHFR after 72 hrs by SYBR green assay

Plasmodium falciparum [34] = assay: microbe, parasite or virus in culture; settings: KC5, 72 h
Description: Antiplasmodial activity against Plasmodium falciparum KC5 after 72 hrs by SYBR green assay

Plasmodium falciparum [35] = assay: microbe, parasite or virus in culture; settings: TF1, 72 h
Description: Antiplasmodial activity against Plasmodium falciparum TF1 after 72 hrs by SYBR green assay

Plasmodium falciparum [36] = assay: microbe, parasite or virus in culture; settings: KH7, 72 h
Description: Antiplasmodial activity against Plasmodium falciparum KH7 after 72 hrs by SYBR green assay

Plasmodium falciparum [37] = assay: microbe, parasite or virus in culture; settings: HB3 pDT, 72 h
Description: Antiplasmodial activity against transgenic Plasmodium falciparum HB3 pDT harboring polymorphic DHFR after 72 hrs by SYBR green assay

Plasmodium falciparum [38] = assay: microbe, parasite or virus in culture; settings: JB8, 72 h
Description: Antiplasmodial activity against Plasmodium falciparum JB8 after 72 hrs by SYBR green assay

Plasmodium falciparum [39] = assay: microbe, parasite or virus in culture; settings: DEV, 72 h
Description: Antiplasmodial activity against Plasmodium falciparum DEV after 72 hrs by SYBR green assay

Plasmodium falciparum [40] = assay: microbe, parasite or virus in culture; settings: KC2, 72 h
Description: Antiplasmodial activity against Plasmodium falciparum KC2 after 72 hrs by SYBR green assay

Plasmodium falciparum [41] = assay: microbe, parasite or virus in culture; settings: AUD, 72 h
Description: Antiplasmodial activity against Plasmodium falciparum AUD after 72 hrs by SYBR green assay

Plasmodium falciparum [42] = assay: microbe, parasite or virus in culture; settings: XG10, 72 h
Description: Antiplasmodial activity against Plasmodium falciparum XG10 after 72 hrs by SYBR green assay

Plasmodium falciparum [43] = assay: microbe, parasite or virus in culture; settings: LA10, 72 h
Description: Antiplasmodial activity against Plasmodium falciparum LA10 after 72 hrs by SYBR green assay

Plasmodium falciparum [44] = assay: microbe, parasite or virus in culture; settings: GB4, 72 h
Description: Antiplasmodial activity against Plasmodium falciparum GB4 harboring polymorphic DHFR after 72 hrs by SYBR green assay

Plasmodium falciparum [45] = assay: microbe, parasite or virus in culture; settings: WF12, 72 h
Description: Antiplasmodial activity against Plasmodium falciparum WF12 after 72 hrs by SYBR green assay

Plasmodium falciparum [46] = assay: microbe, parasite or virus in culture; settings: D2, 72 h
Description: Antiplasmodial activity against Plasmodium falciparum D2 after 72 hrs by SYBR green assay

Plasmodium falciparum [47] = assay: microbe, parasite or virus in culture; settings: Dd2, 72 h; remark: listed apart in the source
Description: Antiplasmodial activity against Plasmodium falciparum Dd2 harboring polymorphic DHFR after 72 hrs by SYBR green assay

Plasmodium falciparum [48] = assay: Antiplasmodial activity against Plasmodium falciparum CDY harboring modified mdr1 protein after 72 hrs by SYBR green assay in presence of 0.8 uM P-gp inhibitor verapamil; assay type: functional, organism-based; settings: MDR1, 72 h

CCCNC[C@H](O)COc1ccccc1C(=O)CCc1ccccc1
IC50 (Plasmodium falciparum [1]): 0.28 µM

CCN(CC)CCNC(=O)c1cc(Cl)c(N)cc1OC.Cl
pIC25 (Plasmodium falciparum [1]): 4.9

Nc1ccc(-c2nc3ccc(-c4nc5ccc(N)cc5[nH]4)cc3[nH]2)cc1
IC50 (Plasmodium falciparum [2]): 0.83 µM | IC50 (Plasmodium falciparum [3]): 0.74 µM | IC50 (Plasmodium falciparum [4]): 0.74 µM | IC50 (Plasmodium falciparum [1]): 0.22 µM | IC50 (Plasmodium falciparum [5]): 1 µM | IC50 (Plasmodium falciparum [6]): 0.28 µM | IC50 (Plasmodium falciparum [7]): 0.52 µM

Nc1nc(N)c2nc(-c3ccccc3)c(N)nc2n1
IC50 (Plasmodium falciparum [8]): 17.1 µM | IC50 (Plasmodium falciparum [9]): 17.1 µM | IC50 (Plasmodium falciparum [10]): 81.8 µM | IC50 (Plasmodium falciparum [11]): 18.1 µM | IC50 (Plasmodium falciparum [12]): 95 µM | IC50 (Plasmodium falciparum [13]): 176 µM | IC50 (Plasmodium falciparum [14]): 65.1 µM | IC50 (Plasmodium falciparum [15]): 59.8 µM | IC50 (Plasmodium falciparum [16]): 64.8 µM | IC50 (Plasmodium falciparum [17]): 5.19 µM | IC50 (Plasmodium falciparum [18]): 4.26 µM | IC50 (Plasmodium falciparum [19]): 52.5 µM | IC50 (Plasmodium falciparum [20]): 3.29 µM | IC50 (Plasmodium falciparum [21]): 57 µM | IC50 (Plasmodium falciparum [22]): 69.5 µM | IC50 (Plasmodium falciparum [23]): 50.1 µM | IC50 (Plasmodium falciparum [24]): 154 µM | IC50 (Plasmodium falciparum [25]): 75.1 µM | IC50 (Plasmodium falciparum [26]): 56.3 µM | IC50 (Plasmodium falciparum [27]): 4 µM | IC50 (Plasmodium falciparum [28]): 3.54 µM | IC50 (Plasmodium falciparum [29]): 43.7 µM | IC50 (Plasmodium falciparum [30]): 11.2 µM | IC50 (Plasmodium falciparum [31]): 44.6 µM | IC50 (Plasmodium falciparum [32]): 5.11 µM | IC50 (Plasmodium falciparum [33]): 70 µM | IC50 (Plasmodium falciparum [34]): 73.5 µM | IC50 (Plasmodium falciparum [35]): 8.82 µM | IC50 (Plasmodium falciparum [36]): 15 µM | IC50 (Plasmodium falciparum [37]): 95 µM | IC50 (Plasmodium falciparum [38]): 49.4 µM | IC50 (Plasmodium falciparum [39]): 60.5 µM | IC50 (Plasmodium falciparum [40]): 60.4 µM | IC50 (Plasmodium falciparum [41]): 54.2 µM | IC50 (Plasmodium falciparum [42]): 8.13 µM | IC50 (Plasmodium falciparum [43]): 5.59 µM | IC50 (Plasmodium falciparum [44]): 5.3 µM | IC50 (Plasmodium falciparum [45]): 5.83 µM | IC50 (Plasmodium falciparum [46]): 22.2 µM | IC50 (Plasmodium falciparum [7]): 51.7 µM | IC50 (Plasmodium falciparum [47]): 141 µM

CN1C[C@H](C(=O)N[C@]2(C)O[C@@]3(O)[C@@H]4CCCN4C(=O)[C@H](Cc4ccccc4)N3C2=O)C[C@@H]2c3cccc4[nH]cc(c34)C[C@H]21 (stereo in doubt; 1) [DIHYDROERGOTAMINE MESYLATE]
IC50 (Plasmodium falciparum [48]): 0.022 µM

CC[C@@]1(O)C(=O)OCc2c1cc1n(c2=O)Cc2cc3ccccc3nc2-1 [CAMPTOTHECIN]
IC50 (Plasmodium falciparum [2]): 0.89 µM | IC50 (Plasmodium falciparum [3]): 1.12 µM | IC50 (Plasmodium falciparum [4]): 0.89 µM | IC50 (Plasmodium falciparum [1]): 0.56 µM | IC50 (Plasmodium falciparum [5]): 1.32 µM | IC50 (Plasmodium falciparum [6]): 0.83 µM | IC50 (Plasmodium falciparum [7]): 1.41 µM

Cc1cc(N)c2ccccc2[n+]1CCCCCCCCCC[n+]1c(C)cc(N)c2ccccc21 [DEQUALINIUM CHLORIDE]
IC50 (Plasmodium falciparum [2]): 0.1 µM | IC50 (Plasmodium falciparum [3]): 0.1 µM

COc1cc(Cc2cnc(N)nc2N)cc(OC)c1OC [TRIMETHOPRIM]
IC50 (Plasmodium falciparum [13]): 158 µM | IC50 (Plasmodium falciparum [24]): 194 µM | IC50 (Plasmodium falciparum [37]): 117 µM | IC50 (Plasmodium falciparum [44]): 4.1 µM | IC50 (Plasmodium falciparum [47]): 169 µM
